What is called MIC is the lowest concentration found to suppress growth.

Structures are written as SMILES. Values after ≈ are worked out from the molar mass of the structure shown.

Consider three compounds from patent publication US8329674B2, “Film forming dental compositions and related methods” (3M Innovative Properties Company, priority 2007, dated 2012).

Assay in all cases: Minimum Inhibitory Concentration (MIC) Test
Common to all, as to type: cell-based

Assay [1] has as its system Pseudomonas aeruginosa (strain ATCC 9027). The settings on record: P. aeruginosa; compound emulsified in water with PLURONIC F68; 24 hours at 37° C.; none = no inhibitory activity noted. Here is the method:
(§1) The MIC Test was carried out using successively lower concentrations of compounds. Sterile tryptic soy broth (50 microliters; TSB, available from BD Dfico, Becton, Dickinson and Company, Franklin Lakes, N.J.) was deposited into each well of a sterile polystyrene 96-well microtitcr plate. Into each well in the first (leftmost) column of the plate, there was then deposited a 50 microliter aliquot (of known concentration) of a compound (i.e., a compound of Formula I, or a pharmaceutically acceptable salt thereof, or comparative compound). A 50 microliter aliquot of the mixture in the first (leftmost) well in the first row of the plate was transferred to the second well in the first row. A 50 microliter aliquot of the mixture in the second well in the first row was then transferred to the third well in the first row. The compound was successively diluted (1:1 dilution at each step) by transferring a 50 microliter aliquot from one well into the next well, across the row of the plate. This procedure was repeated for each row of the plate. Then, an overnight culture of Streptococcus mutans (strain ATCC 25175) was diluted 1:100 into sterile tryptic soy broth. A 50 microliter aliquot of the diluted S. mutans culture (10^5 CFU) was deposited into each well of the microtiter plate. The plate was then incubated at 37° C. for 24 hours in a sealed humidified chamber. The plate was then visually inspected to determine the lowest concentration of compound at which no bacterial growth was visible. This value was considered to be the minimum inhibitory concentration (MIC) for the compound. The test was repeated using Staphylococcus aureus (strain ATCC 6538) and Pseudomonas aeruginosa (strain ATCC 9027) in place of S. mutans.
(§2) A sample of each of N-dodecanoyl-D-glucosamine, N-tetradecanoyl-D-glucosamine, and N-hexadecanoyl-D-glucosamine (0.100 g each) was emulsified in water (10 g) using a nonionic surfactant (0.9 g; PLURONIC F68, available from BASF Corp., Mount Olive, N.J.). A control sample was made by combining the nonionic surfactant (0.9 g) and water (10 g). Each of the four samples was evaluated using the Minimum Inhibitory Concentration (MIC) Test described above with S. mutans, S. aureus, and P. aeruginosa. In Table 5, “F68” refers to the nonionic surfactant used in the Comparative Examples, and “none” means that no inhibitory activity was noted.

For assay [2], the system named is Staphylococcus aureus (strain ATCC 6538). The settings on record: S. aureus; compound emulsified in water with PLURONIC F68; 24 hours at 37° C.; none = no inhibitory activity noted. Here is the method: as §1, §2
The subject of assay [3] is Streptococcus mutans (strain ATCC 25175). The settings on record: ATCC25175, S. mutans, compound emulsified in water with PLURONIC F68, 24 hours at 37° C., none = no inhibitory activity noted. As to the method:
as §1, §2

With `CCCCCCCCCCCC(=O)N[C@H]1C(O)O[C@H](CO)[C@@H](O)[C@@H]1O` (stereo partly drawn) [N-dodecanoyl-D-glucosamine], the MIC entry in assay [1] was “None”; in assay [2], “None”; in assay [3], 78 µg/mL (≈ 216 µM).
For the compound `CCCCCCCCCCCCCCCC(=O)N[C@H]1C(O)O[C@H](CO)[C@@H](O)[C@@H]1O` (stereo partly drawn) [N-hexadecanoyl-D-glucosamine], the MIC entry was “None” in assay [1], “None” in assay [2] and 39 µg/mL (≈ 93.4 µM) in assay [3].
With `CCCCCCCCCCCCCC(=O)N[C@H]1C(O)O[C@H](CO)[C@@H](O)[C@@H]1O` (stereo partly drawn) [N-tetradecanoyl-D-glucosamine], the MIC entry was “None” in assay [1], “None” in assay [2] and 78 µg/mL (≈ 200 µM) in assay [3].
